Test results published in patent publication US8212038B2, “Methods and compositions for controlling ectoparasites” (HatchTech Pty Ltd., priority 2003, dated 2012).
Entries after “also recorded” stand apart in the source; their conditions may differ.

Tests used:
[1] = tested on: proteases in the egg shell washings (ESW) of lice eggs; experiment: Gelatine substrate SDS-PAGE of egg shell washings treated with protease inhibitors; type: biochemical, Pediculus humanus humanus; conditions: 10 mM inhibitor; 37° C., 3 hrs
Procedure: Within 12 hours of hatching 50 body lice eggs (Pediculus humanus humanus) were removed from the hair and placed in a 1 ml eppendorf tube. 20 μL of distilled water was added to the unhatched eggs and the preparation incubated for 30 minutes at 32° C. The 20 μL was recovered, freeze dried and stored at −70° C. A number of other samples were also collected as described. Hair samples from which unhatched lice eggs had been removed were also collected and incubated as described above. In addition, a sample of unhatched eggs and a sample of hair from which lice eggs had been removed were collected 7 days post laying (within 24 hrs of egg hatching). Both samples were washed in 10 mls of a 1% solution of sodium hypochlorite for 1 minute followed by a 5×1 minute washes in 25 mls in distilled water to remove the hypochlorite. These samples were then incubated in […] of distilled water as described above. In addition, a group of 25 lice eggs that were within 24 hours of hatching, were pretreated with 1% sodium hypochlorite, washed as described above and left to hatch. Within 1-2 hours after hatching the empty egg shells were incubated in 20 μL of distilled water as described above, the washings collected from the hatched egg shells and stored at −70° C. All of the extract samples were then freeze-dried overnight. The freeze-dried samples were then resuspended in […] of non-reducing SDS sample buffer, centrifuged at 10,000 g for 2 minutes and the entire 15 μL loaded on to 10% gelatine substrate SDS-PAGE gels. Gels were run at 4° C. for 10 minutes at 10 mA followed by a further 25 minutes at 15 mA per gel. They were then incubated for 2×20 minutes in a 2.5% Triton-X 100 solution followed by a three hour incubation in 0.1M Tris/HCl containing 1 mM CaCl2 pH 8.0. Activity was detected as clear areas on the gel the result of protease activity degrading the gelatine within the gel.
10% SDS-PAGE gelatine substrate gels were loaded with freeze dried egg shell washings from 100 lice eggs that had been resuspended in 50 μl of non-reducing sample buffer with samples run at 10 μl per lane. Gels were run at 4° C. for 10 minutes at 10 mA per gel followed by a further 25 minutes at 15 mA per gel. Gels were then cut into strips and each strip incubated for 2×20 minutes in a 2.5% Triton-X 100 solution containing a specific inhibitor. The inhibitors used were the serine protease inhibitor PMSF (5 mM), the metalloprotease inhibitor 1,10-phenanthroline (10 mM), the aspartic protease Pepstatin (5 μM) and the cysteine inhibitor E-64 (10 μM). The gel strips were then incubated in 0.1M Tris/HCl containing 1 mM CaCl2 pH 8 containing the different protease inhibitors for 3 hrs at 37° C., before being stained in Coomassie blue and destained as previously described.

lice eggs [2] = experiment: Lice egg-hatching bioassay, eggs treated once 5 days post laying; type: in vivo, Pediculus humanus humanus
Procedure: To evaluate the potential effects of protease inhibitors on lice egg hatching it was necessary to develop a reliable in vitro bioassay. Male and female clothing lice were fed on a rabbit as previously described. […] During this period the female lice laid their eggs and attached them to the woven cloth. All lice would then be removed and the eggs permitted to incubate for the following 5 days. […] The eggs would then progress through to their final stages of development and hatch. In untreated control eggs a reliable average percentage hatch of between 85-95 percent was obtained using the in vitro egg hatch assay. […] Lice eggs were laid onto cloth as described above. […] Protease inhibitor solutions were typically prepared as stock solutions and added fresh at the appropriate concentration. Specifically stock solutions were prepared as follows: 1,10-phenanthroline (200 mM in methanol) and Bestatin (5 mg/ml in methanol). In addition, the equivalent levels of the solvent were added to the non-inhibitor containing controls eggs to test for any buffer alone effects. Percentage hatch inhibition was calculated as the percentage reduction in egg hatch compared to the untreated control.

lice eggs [3] = experiment: Time course in vitro lice egg hatching assay; type: in vivo, Pediculus humanus humanus
[4] = tested on: head lice egg (Pediculus humanus capitus); experiment: Head lice egg hatching time course; type: in vivo; conditions: 10 mM
Procedure: Tests were carried out to determine if metal chelating agent and metalloprotease inhibitor 1,10-phenanthroline could inhibit head lice egg (Pediculus humanus capitus) hatching as opposed to body lice. Head lice eggs were obtained by placing groups of both 1-2 adult male and 6-8 adult female head lice in separate wells in a 24 well petri dish containing cotton cloth. The petri dish was transferred to a humid incubator at 32° C., 70% RH for 12 hours to permit the female lice to lay their eggs. After 12 hours, all adult lice were removed from the petri dish wells and a series of time-course experiments conducted. A group of eggs (24 hr old) was treated for 10 minutes with 200 μl of a 10 mM solution of 1,10-phenanthroline. A control (i.e., no inhibitor treatment) group of eggs was also included. The eggs were removed from the inhibitor, blotted dry on tissue paper, placed at 32° C., 70% RH and left to hatch. A second group of eggs, (48 hr old) were treated as previously described and also left to hatch. This process was repeated at 24 hr intervals on head lice eggs up to 120 hr post laying. This method of assaying inhibitors more closely mirrors the field situation where lice eggs will be at various stages of development on the head and permits the inhibitory effects to be observed on these different stages of the parasite.

lice eggs [5] = experiment: Standard lice egg-hatching assay with commercial head lice products; type: in vivo; conditions: across the different stages of lice egg hatching (24-120 hr post laying)
Procedure: These three products were tested according to manufacturer's recommendations. Groups of eggs (24 hr old) were treated with the different products according to manufacturer's recommendations for the appropriate period of time (5-10 minutes) followed by a rinse for 1-2 minutes in 32° C. water. A positive controls (10 mM 1,10-phenanthroline) and two negative controls (no treatment and 20% Methanol) were also incorporated. Post exposure to the different products, the eggs were rinsed with warm water at 32° C. before being blotted dry on tissue paper and placed at 32° C., 70% RH and left to hatch. A second group of eggs, (48 hr old) were treated as previously described and also left to hatch. This process was repeated at 24 hr intervals on head lice eggs up to 120 hr post laying. This method of assaying inhibitors more closely mirrors the field situation where lice eggs will be at various stages of development on the head and permits the inhibitory effects to be observed on these different stages of the parasite.
These two products were tested according to manufacturer's recommendations. Groups of eggs (24 hr old) were treated with the different products according to manufacturer's recommendations for the appropriate period of time (5-10 minutes) followed by a rinse for 1-2 minutes in 32° C. water. Two negative controls (no treatment and 20% ethanol) were also incorporated. […]

[6] = tested on: Plutella xylostella eggs (Waite strain); experiment: Egg hatch of Plutella xylostella after dipping in inhibitor; conditions: 10 mM
Procedure: The egg masses were then placed in a humid box at 25 degrees until egg hatch. Control eggs were exposed to absolute methanol as described above. At day 6 post laying the eggs were assessed from the different treatments and the percentage of egg hatch determined relative to the control as shown in Table 9.
Batches of Plutella eggs that were laid on either fine cloth or parafilm were dipped in a specific inhibitor solution for between 2-10 seconds, the excess solution was drained by blotting with dry tissue paper. The egg masses were then placed in a humid box at 25 degrees until egg hatch. Control eggs were exposed to absolute methanol as described above or not treated.
The egg masses were then placed in a humid box at 25 degrees until egg hatch. Control eggs were exposed to absolute ethanol as described above. On day 6 post laying the eggs were assessed from the different treatments and the percentage of egg hatch determined relative to the control.

[7] = tested on: Helicoverpa armigera eggs (Tatura×Toowoomba strains); experiment: Egg hatch of Helicoverpa armigera after exposure to inhibitor; conditions: 10 mM
Procedure: Several hundred Helicoverpa armigera eggs (Tatura×Toowoomba strains) were collected, that had been laid on fine mesh cloth over a 24 hour period.
Batches of Helicoverpa eggs were exposed to a specific inhibitor solution for between 2-10 seconds the excess solution drained by blotting with dry tissue paper. The egg masses were then placed in a humid box at 25 degrees until egg hatch. Control eggs were exposed to absolute methanol as described above.

[8] = added within 24 hours of hatching, data not shown

SMILES | protease activity of ESW on gelatine SDS-PAGE after inhibitor treatment [1] | inhibition of egg hatching in lice (in words) (lice eggs [2]; 10 mM, eggs treated 5 days post laying) | inhibition of egg hatching in lice (in words) (lice eggs [2]; [8]) | inhibition of lice egg hatching (in words) (lice eggs [3]; 10 mM, following washing of eggs in water) | inhibition of lice egg hatching (in words) (lice eggs [3]; varying concentrations (10, 5, 2.5 mM) over the time course) | inhibition of egg hatching in head lice (in words) [4] | ovicidal activity (in words) (lice eggs [5]) | inhibition of egg hatching in Plutella xylostella (in words) [6] | inhibition of egg hatching of Helicoverpa armigera (in words) [7] | inhibition of egg hatching in lice (in words) (lice eggs [2]; 5 mM, eggs treated 5 days post laying) | inhibition of lice egg hatching (in words) (lice eggs [3]; 5 mM, time course)
c1cnc2c(c1)ccc1cccnc12 [1,10-phenanthroline, reference compound] | significant reduction in protease activity | significantly inhibited egg hatching | variable inhibition of egg hatching | still highly efficacious at inhibiting lice egg hatching | Significant inhibition; also recorded: significantly inhibit egg hatching in lice at all time points examined | significantly inhibit egg hatching in head lice | highly effective at inhibiting lice egg hatching | significantly inhibit egg hatching | able to inhibit egg hatching at 10 mM only | – | –
CC(C)C[C@H](NC(=O)[C@@H](O)[C@H](N)Cc1ccccc1)C(=O)O [Bestatin, reference compound] | – | – | variable inhibition of egg hatching | – | – | – | – | – | – | significantly inhibit lice egg hatching | significant inhibition, but only when applied approximately 24 hrs prior to egg hatch; also recorded: partially inhibit lice egg hatching
